We go through two substances from patent US10968269B1, “MHC multimers in borrelia diagnostics and disease” (Agilent Technologies, Inc., priority 2008, dated 2021).

The target in experiment [1] is HLA-A*0201-β2m-… peptide-complex (human). The experiment can be described thus: sandwich ELISA: W6/32 coated, MHC complex added, HRP rabbit anti-β2m detection; reference: free β2m.
Experiment [2] deals with Bcl-X(L)-specific, CD8 positive T cells. The note with it: PBL from a breast cancer patient, 106 PBL/well in doublets, compared to the absence of added peptide, FIG. 11; cited from earlier work.
Experiment [3] deals with T2 cells loaded with Bcl-X(L)173-182 peptide. Particulars: different concentrations of peptide, E:T ratio 1:1, FIG. 14; cited from earlier work.

A value given as a limit tells only on which side of the number the result lay.

In the case of “W6/32 mouse-anti-HLA-ABC antibody (Dako M0736)”, in experiment [1], the OD450 ratio against the negative control β2m is above 6 fold. For YLNDHLEPWI (listed as Homo sapiens), the “ELISPOT detection of BclX(L) specific T-cells (number of spots, IFN-gamma producing T-cells)” value in experiment [2] is “clearly shows the presence of BclX(L) specific T-cells”. Also, in experiment [3], the “effect of the peptide on killing of pulsed T2 target cells by clone 9” value is “significant even at low concentrations”.
